According to the supplement of paper PMC11061612:

Tests used:
Assay in all cases: combination Emax (second highest fraction inhibited in the dose matrix, 72 h); higher = more inhibition; extreme values may be limits of the assay
[1] = system: CGTH-W-1 (Thyroid Gland Carcinoma)
Outline: (§1)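 Cell lines grown in DMEM/F12 or RPMI with 10% FBS were plated in 1536-well plates and held 24 hours at 37°C, 5% CO2 before 72 hours of exposure to two-drug dose matrices, with DMSO typically at 0.2%. CellTiter-Glo 2.0 luminescence gave viability, which was converted to inhibition. Vehicle wells were set to 0 and blank wells to 1. Combination Emax is the second-highest inhibition in the matrix, and Bliss excess is the observed combination effect minus the expected EA + EB − EA·EB, where EA and EB are the single-agent effects.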

WM1552C (Melanoma) = system: WM1552C (Melanoma)
Outline: as §1

[2] = system: LU-165 (Small Cell Lung Carcinoma)
Outline: as §1

IM-9 (Non-Cancerous) = system: IM-9 (Non-Cancerous)
Outline: as §1

EB2 (Burkitt's Lymphoma) = system: EB2 (Burkitt's Lymphoma)
Outline: as §1

[3] = system: NCI-H1703 (Squamous Cell Lung Carcinoma)
Outline: as §1

[4] = system: NCI-H2087 (Lung Adenocarcinoma)
Outline: as §1

769-P (Kidney Carcinoma) = system: 769-P (Kidney Carcinoma)
Outline: as §1

[5] = system: JHH-2 (Hepatocellular Carcinoma)
Outline: as §1

[6] = system: KYSE-220 (Esophageal Squamous Cell Carcinoma)
Outline: as §1

[7] = system: A2780 (Ovarian Carcinoma)
Outline: as §1

[8] = system: MDA-MB-436 (Breast Carcinoma)
Outline: as §1

[9] = system: NCI-H1651 (Lung Adenocarcinoma)
Outline: as §1

PEO1 (Ovarian Carcinoma) = system: PEO1 (Ovarian Carcinoma)
Outline: as §1

[10] = system: SK-HEP-1 (Hepatocellular Carcinoma)
Outline: as §1

[11] = system: MHH-ES-1 (Ewing's Sarcoma)
Outline: as §1

[12] = system: HCC1395 (Breast Carcinoma)
Outline: as §1

[13] = system: NCI-H441 (Lung Adenocarcinoma)
Outline: as §1

EW-7 (Ewing's Sarcoma) = system: EW-7 (Ewing's Sarcoma)
Outline: as §1

[14] = system: SW620 (Colorectal Carcinoma)
Outline: as §1

Structure (SMILES)	combination Emax [1]	combination Emax (WM1552C (Melanoma))	combination Emax [2]	combination Emax (IM-9 (Non-Cancerous))	combination Emax (EB2 (Burkitt's Lymphoma))	combination Emax [3]	combination Emax [4]	combination Emax (769-P (Kidney Carcinoma))	combination Emax [5]	combination Emax [6]	combination Emax [7]	combination Emax [8]	combination Emax [9]	combination Emax (PEO1 (Ovarian Carcinoma))	combination Emax [10]	combination Emax [11]	combination Emax [12]	combination Emax [13]	combination Emax (EW-7 (Ewing's Sarcoma))	combination Emax [14]
COc1cc2ncnc(Nc3ccc(F)c(Cl)c3)c2cc1OCCCN1CCOCC1 [Gefitinib] + CC(C)n1c(=O)n(C)c2cnc3cc(F)c(-c4ccc(OCCCN5CCCCC5)nc4)cc3c21 [AZD1390] (first compound max 10 µM, 7x7, partner max 0.3 µM)	0	0.12	0.173	0.424	0.38	0.305	0.131	0.442	0.304	0.431	0.485	0.225	0.112	0.175	0.369	0.182	0.192	0.271	0.328	0.0744
Cc1cc2ncnn2cc1Nc1ncc2c(n1)n(C1CCOCC1)c(=O)n2C [AZD7648] + C=CCn1c(=O)c2cnc(Nc3ccc(N4CCN(C)CC4)cc3)nc2n1-c1cccc(C(C)(C)O)n1 [AZD1775] (first compound max 10 µM, partner max 1 µM)	0.265	0.551	0.419	0.996	0.819	0.962	0.353	0.829	0.7	0.882	0.827	0.362	0.631	0.439	0.513	0.686	0.594	0.444	0.898	0.526
CN(CCO)CC[C@H](CSc1ccccc1)Nc1ccc(S(=O)(=O)NC(=O)c2ccc(N3CCC([C@@H](O)c4ccccc4-c4ccc(Cl)cc4)CC3)cc2)cc1S(=O)(=O)C(F)(F)F [AZD4320] + Nc1ccn([C@@H]2O[C@H](CO)[C@@H](O)C2(F)F)c(=O)n1 [Gemcitabine] (first compound max 1 µM, 7x7, partner max 0.3 µM)	0.887	0.817	0.828	1	0.932	0.915	0.881	0.903	0.525	0.674	0.893	0.531	0.543	0.607	0.936	0.964	0.211	0.765	1	0.871
CN(CCO)CC[C@H](CSc1ccccc1)Nc1ccc(S(=O)(=O)NC(=O)c2ccc(N3CCC([C@@H](O)c4ccccc4-c4ccc(Cl)cc4)CC3)cc2)cc1S(=O)(=O)C(F)(F)F [AZD4320] + CC(=O)O[C@H]1C(=O)[C@@]2(C)[C@H]([C@H](OC(=O)c3ccccc3)[C@]3(O)C[C@H](OC(=O)[C@H](O)[C@@H](NC(=O)c4ccccc4)c4ccccc4)C(C)=C1C3(C)C)[C@]1(OC(C)=O)CO[C@@H]1C[C@@H]2O [Paclitaxel] (first compound max 1 µM, 7x7, partner max 3 µM)	0.881	0.941	0.88	1	0.802	0.976	0.976	0.958	0.93	0.793	0.946	0.65	0.981	0.852	0.952	1	0.838	0.735	1	1
COc1nnc2ccc(N3CCC(c4ccc(OCCN5CCN(C)C(=O)[C@H]5C)cc4)CC3)nn12 [AZD5153] + CN(CC[C@H](CSC1=CC=CC=C1)NC2=C(C=C(C=C2)S(=O)(=O)NC(=O)C3=CC=C(C=C3)N4CCC(CC4)[C@H](C5=CC=CC=C5C6=CC=C(C=C6)Cl)O)S(=O)(=O)C(F)(F)F)CCO [AZD4320] (first compound max 1 µM, 7x7, partner max 1 µM)																0.74				0.84
CC(=O)c1c(C)c2cnc(Nc3ccc(N4CCNCC4)cn3)nc2n(C2CCCC2)c1=O [Palbociclib] + CN(CC[C@H](CSC1=CC=CC=C1)NC2=C(C=C(C=C2)S(=O)(=O)NC(=O)C3=CC=C(C=C3)N4CCC(CC4)[C@H](C5=CC=CC=C5C6=CC=C(C=C6)Cl)O)S(=O)(=O)C(F)(F)F)CCO [AZD4320] (first compound max 10 µM, 7x7, partner max 1 µM)																0.835				0.693
